Tests used:
human Cav1.2 channel = biological target: T1, human Cav1.2 channel (Homo sapiens, UniProt Q13936); test: In vitro assay L channel (FLIPR, KCl-induced calcium fluorescence); assay type: cell-based; conditions: HEK293 cells expressing human Cav1.2 with β-2a and α2δ-1; 20 mM KCl depolarization; range stated for the group; read-out: IC50 (L channel antagonistic activity)
T1 construct: expressed in transfected cells; host or cells: HEK293
Description: The L channel antagonistic activity (IC50 values) of the compounds of formula (I) is determined in accordance with the following experimental method.
Human embryonic kidney (HEK293) cells expressing the human Cav1.2 channel in addition to the auxiliary subunits β-2a and α2δ-1, are grown in culture medium (DMEM containing 10% heat-inactivated fetal calf serum (FCS), 100 U/ml penicillin, 100 μg/ml streptomycin, 100 μg/ml G418, 40 μg/ml zeocin and 100 μg/ml hygromycin). The cells are seeded at 20,000 cells/well into 384-well black clear bottom sterile plates (poly-L-lysine-coated, Becton Dickinson). The seeded plates are incubated overnight at 37° C. in 5% CO2. The KCl solution is prepared as 80 mM stock solution in assay buffer (HBSS containing 0.1% BSA, 20 mM HEPES, 0.375 g/l NaHCO3, adjusted to pH 7.4 with NaOH) for use in the assay at a final concentration of 20 mM. Antagonists are prepared as 10 mM stock solutions in DMSO, then diluted in 384w plates first in DMSO, then in assay buffer to obtain 3× stocks. On the day of the assay, 25 μl of staining buffer (HBSS containing 20 mM HEPES, 0.375 g/l NaHCO3, and 30 μM of the fluorescent calcium indicator fluo-4 AM (1 mM stock solution in DMSO, containing 10% pluronic) is added to each well of the seeded plate. The 384-well cell-plates are incubated for 60 min at 37° C. in 5% CO2 followed by washing with […] using assay buffer leaving […] of this buffer for equilibration at room temperature (30-60 min). Within the Fluorescent Imaging Plate Reader (FLIPR, Molecular Devices), antagonists are added to the plate in a volume of 25 μl/well, incubated for 3 min and finally 25 μl/well of KCl solution is added for cellular depolarization. Fluorescence is measured for each well at 2 second intervals for 8 minutes, and the area under the curve of each fluorescence peak is compared to the area of the fluorescence peak induced by 20 mM KCl with vehicle in place of antagonist. […]

isolated mouse hearts = test: Effect on isolated hearts according to the Langendorff method; conditions: read-out: EC50 (Langendorff experiment)
Description: The compounds were tested for their potential to reduce blood pressure and their effect on the contractility of the heart muscle. EC50 values on isolated mouse hearts were determined according to Literature (Doring H J., The isolated perfused heart according to Langendorff technique—function—application, Physiol. Bohemoslov. 1990, 39(6), 481-504; Kligfield P, Horner H, Brachfeld N., A model of graded ischemia in the isolated perfused rat heart, J. Appl. Physiol. 1976 June, 40(6), 1004-8).

[1] = tested on: human Cav3.1 Cav3.2 or Cav3.3 channel; test: In vitro assay T channel (FLIPR, Ca2+-induced calcium fluorescence); assay type: cell-based; conditions: HEK293 cells expressing human Cav3.1, Cav3.2 or Cav3.3; 10 mM Ca2+; subtype not specified in Table 1; read-out: IC50 (T channel antagonistic activity)
Description: The T channel antagonistic activity (IC50 values) of the compounds of formula (I) is determined in accordance with the following experimental method and data are shown in Table 1.
Human embryonic kidney (HEK293) cells expressing the human Cav3.1 Cav3.2 or Cav3.3 channel, respectively, are grown in culture medium (DMEM containing 10% heat-inactivated fetal calf serum (FCS), 100 U/ml penicillin, 100 μg/ml streptomycin and 1 mg/ml G418). The cells are seeded at 20,000 cells/well into 384-well black clear bottom sterile plates (poly-L-lysine-coated, Becton Dickinson). The seeded plates are incubated overnight at 37° C. in 5% CO2. […] On the day of the assay, 25 μl of staining buffer (HBSS containing 20 mM HEPES, 0.375 g/l NaHCO3 and 30 μM of the fluorescent calcium indicator fluo-4 AM (1 mM stock solution in DMSO, containing 10% pluronic) is added to each well of the seeded plate. The 384-well cell-plates are incubated for 60 min at 37° C. in 5% CO2 followed by washing with […] using HBSS containing 0.1% BSA, 20 mM HEPES, 0.375 g/l NaHCO3, leaving […] of this buffer for equilibration at room temperature (30-60 min). Within the Fluorescent Imaging Plate Reader (FLIPR, Molecular Devices), antagonists are added to the plate in a volume of […], incubated for 3 min, and finally […] of Ca^2+solution is added. […]

T1 sequence (Q13936 whole entry): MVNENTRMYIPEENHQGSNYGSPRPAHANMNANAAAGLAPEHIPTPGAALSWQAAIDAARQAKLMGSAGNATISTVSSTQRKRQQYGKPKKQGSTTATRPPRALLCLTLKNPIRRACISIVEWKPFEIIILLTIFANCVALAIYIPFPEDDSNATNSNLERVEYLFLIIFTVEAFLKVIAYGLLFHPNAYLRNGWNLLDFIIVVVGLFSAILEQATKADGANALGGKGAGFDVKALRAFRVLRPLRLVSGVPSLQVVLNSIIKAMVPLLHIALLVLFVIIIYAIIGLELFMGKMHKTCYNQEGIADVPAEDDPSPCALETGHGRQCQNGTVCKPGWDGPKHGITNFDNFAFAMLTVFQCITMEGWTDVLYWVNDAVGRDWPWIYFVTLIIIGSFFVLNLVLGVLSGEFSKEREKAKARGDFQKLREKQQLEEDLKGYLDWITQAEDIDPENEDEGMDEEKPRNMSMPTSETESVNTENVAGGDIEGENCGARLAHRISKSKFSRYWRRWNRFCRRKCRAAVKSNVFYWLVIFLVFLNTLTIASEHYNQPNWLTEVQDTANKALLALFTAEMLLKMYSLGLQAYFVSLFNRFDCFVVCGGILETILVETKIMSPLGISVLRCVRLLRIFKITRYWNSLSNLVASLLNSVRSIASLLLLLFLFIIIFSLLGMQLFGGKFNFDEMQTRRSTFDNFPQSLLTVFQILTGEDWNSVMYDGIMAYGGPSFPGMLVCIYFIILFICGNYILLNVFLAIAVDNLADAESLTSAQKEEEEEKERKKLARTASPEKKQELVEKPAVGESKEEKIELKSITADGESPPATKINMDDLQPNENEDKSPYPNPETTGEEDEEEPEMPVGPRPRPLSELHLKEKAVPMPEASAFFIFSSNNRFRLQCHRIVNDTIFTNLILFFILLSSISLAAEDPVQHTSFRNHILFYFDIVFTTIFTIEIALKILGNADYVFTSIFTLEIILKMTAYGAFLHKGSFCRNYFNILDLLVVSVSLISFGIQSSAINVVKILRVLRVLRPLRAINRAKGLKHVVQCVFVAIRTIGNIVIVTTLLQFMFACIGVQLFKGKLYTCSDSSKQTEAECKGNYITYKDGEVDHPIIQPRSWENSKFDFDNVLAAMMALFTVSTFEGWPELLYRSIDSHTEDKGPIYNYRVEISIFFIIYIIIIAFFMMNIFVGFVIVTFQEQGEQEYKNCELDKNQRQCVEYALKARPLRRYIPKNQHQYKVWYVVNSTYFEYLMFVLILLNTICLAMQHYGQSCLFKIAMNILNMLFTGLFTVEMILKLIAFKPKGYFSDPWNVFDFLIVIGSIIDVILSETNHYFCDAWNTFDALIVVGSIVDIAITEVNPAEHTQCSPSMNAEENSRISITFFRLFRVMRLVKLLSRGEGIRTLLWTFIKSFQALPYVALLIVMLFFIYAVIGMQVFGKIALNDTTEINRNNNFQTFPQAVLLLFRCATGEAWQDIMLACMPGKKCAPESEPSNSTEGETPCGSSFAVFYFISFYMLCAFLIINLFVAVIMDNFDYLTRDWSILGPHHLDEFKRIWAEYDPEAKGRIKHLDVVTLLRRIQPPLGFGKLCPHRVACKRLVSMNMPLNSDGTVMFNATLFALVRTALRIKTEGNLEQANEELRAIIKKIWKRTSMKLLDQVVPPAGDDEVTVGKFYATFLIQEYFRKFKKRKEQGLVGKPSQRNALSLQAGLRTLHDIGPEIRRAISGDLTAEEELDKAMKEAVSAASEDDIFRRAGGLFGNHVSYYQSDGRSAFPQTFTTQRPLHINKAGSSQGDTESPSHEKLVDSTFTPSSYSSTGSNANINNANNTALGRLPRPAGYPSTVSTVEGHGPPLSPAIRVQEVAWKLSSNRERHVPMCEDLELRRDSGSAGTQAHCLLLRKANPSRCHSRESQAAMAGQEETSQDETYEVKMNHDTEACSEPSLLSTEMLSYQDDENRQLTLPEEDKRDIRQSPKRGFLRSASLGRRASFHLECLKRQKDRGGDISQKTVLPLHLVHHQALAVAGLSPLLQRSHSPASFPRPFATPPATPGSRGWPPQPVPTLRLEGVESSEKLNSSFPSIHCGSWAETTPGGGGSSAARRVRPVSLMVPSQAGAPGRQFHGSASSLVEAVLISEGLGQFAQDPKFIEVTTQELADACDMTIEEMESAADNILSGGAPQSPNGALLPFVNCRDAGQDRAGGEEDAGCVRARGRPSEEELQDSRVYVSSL

Row | EC50 (isolated mouse hearts) [nM] | IC50 [1] [nM] | Structure (SMILES) | IC50 (human Cav1.2 channel) [nM]
1 | 5 | – | COc1ccc(OC)c2[nH]c(CCCN(C)CC[C@]3(OC(=O)C(C)C)C[C@H]4CC[C@@H]3C=C4c3ccccc3)nc12 (racemic) [Example 1A, rac-Isobutyric acid (1R*,2R*,4R*)-2-(2-{[3-(4,7-dimethoxy-1H-benzoimidazol-2-yl)-propyl]-methyl-amino}-ethyl)-5-phenyl-bicyclo[2.2.2]oct-5-en-2-yl ester] | 156 to 439
2 | – | – | COc1ccc(OC)c2[nH]c(CCCN(C)CC[C@]3(OC(=O)C(C)C)C[C@H]4CCC[C@@H]3C=C4c3ccccc3)nc12 (racemic) [Example 4A, rac-Isobutyric acid (1R*,5R*,6R*)-6-(2-{[3-(4,7-dimethoxy-1H-benzoimidazol-2-yl)-propyl]-methyl-amino}-ethyl)-8-phenyl-bicyclo[3.2.2]non-8-en-6-yl ester] | 156 to 439
3 | – | 778 | COc1ccc(OC)c2[nH]c(CCCN(C)CCC3(OC(=O)C(C)C)CC4CCC3C=C4c3ccccc3)nc12 (single isomer, unassigned) [Example 2A, Isobutyric acid (1R,2R,4R)-2-(2-{[3-(4,7-dimethoxy-1H-benzoimidazol-2-yl)-propyl]-methyl-amino}-ethyl)-5-phenyl-bicyclo[2.2.2]oct-5-en-2-yl ester or isobutyric acid (1S,2S,4S)-2-(2-{[3-(4,7-dimethoxy-1H-benzoimidazol-2-yl)-propyl]-methyl-amino}-ethyl)-5-phenyl-bicyclo[2.2.2]oct-5-en-2-yl ester] | 156 to 439
4 | – | 793 | COc1ccc(OC)c2[nH]c(CCCN(C)CCC3(OC(=O)C(C)C)CC4CCC3C=C4c3ccccc3)nc12 (single isomer, unassigned) [Example 3A, Isobutyric acid (1R,2R,4R)-2-(2-{[3-(4,7-dimethoxy-1H-benzoimidazol-2-yl)-propyl]-methyl-amino}-ethyl)-5-phenyl-bicyclo[2.2.2]oct-5-en-2-yl ester or isobutyric acid (1S,2S,4S)-2-(2-{[3-(4,7-dimethoxy-1H-benzoimidazol-2-yl)-propyl]-methyl-amino}-ethyl)-5-phenyl-bicyclo[2.2.2]oct-5-en-2-yl ester] | –
